The source of these data is ChEMBL document CHEMBL1159011, “Four new bioactive polyhydroxylated sterols from the black coral Antipathes subpinnata” (J Nat Prod, 1992).

≈ marks a conversion by molar mass, not a printed value.

A short description of the data set: Toxicity against Artemia salina after 24 hrs. The data set is classed as organism-based. The note with it: in vivo.
The compound `CC(C)C/C=C/[C@@H](C)[C@H]1CC[C@H]2[C@@H]3[C@@H](O)C=C4C[C@@H](O)CC[C@]4(CO)[C@H]3CC[C@]12C` registered an LC50 at 24 h of 30.7 µg/mL (≈ 73.7 µM). On to `CC(C)CCC[C@@H](C)[C@H]1CC[C@H]2[C@@H]3[C@@H](O)C=C4C[C@@H](O)CC[C@]4(CO)[C@@]3(O)CC[C@]12C`, for which the median lethal concentration (LC50) at 24 h was found to be 7.2 µg/mL (≈ 16.6 µM).

Regarding `CC(C)CCC[C@](C)(O)[C@H]1C(=O)C[C@H]2[C@@H]3CCC4=CC(=O)C=C[C@]4(C)[C@H]3CC[C@@]21CO`, the median lethal concentration (LC50) at 24 h was 139 µg/mL (≈ 325 µM). In turn, `CC(C)CCC[C@@H](C)[C@H]1CC[C@H]2[C@@H]3[C@@H](O)C=C4C[C@@H](O)CC[C@]4(CO)[C@H]3CC[C@]12C` registered an LC50 at 24 h of 55.6 µg/mL (≈ 133 µM).
